ChEMBL document CHEMBL3872224, “Synthesis and cytotoxicity of novel artemisinin derivatives containing sulfur atoms” (Eur J Med Chem, 2016)

Key:
[1] = Cytotoxicity against human SGC7901 cells measured after 72 hrs by MTT assay; type: functional, cell-based; settings: SGC-7901, 72 h
[2] = Cytotoxicity against human A549 cells measured after 72 hrs by MTT assay; type: functional, cell-based; settings: A549, 72 h
[3] = Cytotoxicity against human PC3 cells measured after 72 hrs by MTT assay; type: functional, cell-based; settings: PC-3, 72 h
[4] = Cytotoxicity against human MDA-MB-435S cells measured after 72 hrs by MTT assay; type: functional, cell-based
[5] = Cytotoxicity against human L02 measured after 72 hrs by MTT assay; type: toxicity; settings: L02 cells
[6] = system: SGC-7901; assay: Selectivity index, ratio of IC50 for human L02 cells to IC50 for human SGC7901 cells; type: functional
[7] = system: A549; assay: Selectivity index, ratio of IC50 for human L02 cells to IC50 for human A549 cells; type: functional

SMILES | IC50 [1] [µM] | IC50 [2] [µM] | IC50 [3] [µM] | IC50 [4] [µM] | IC50 at 72 h [5] [µM] | Ratio IC50 [6] | Ratio IC50 [7]
CCCCSc1cccc(C(=O)O[C@@H]2O[C@@H]3O[C@]4(C)CC[C@H]5[C@H](C)[C@H](O)C[C@@H]([C@H]2C)[C@@]35OO4)c1 | 173 | 96.1 | 464 | – | – | – | –
C[C@@H]1[C@H](O)C[C@H]2[C@@H](C)[C@H](OC(=O)c3cccc(SC4CCCCC4)c3)O[C@@H]3O[C@]4(C)CC[C@@H]1[C@]32OO4 | 553 | 33.3 | 204 | 29.6 | – | – | –
CCSc1cccc(C(=O)O[C@@H]2O[C@@H]3O[C@]4(C)CC[C@H]5[C@H](C)[C@H](OC(=O)c6cccc(SCC)c6)C[C@@H]([C@H]2C)[C@@]35OO4)c1 | 74.2 | 44.4 | 30 | 112 | – | – | –
COc1ccc(Sc2cccc(C(=O)O[C@@H]3O[C@@H]4O[C@]5(C)CC[C@H]6[C@H](C)[C@H](OC(=O)c7cccc(Sc8ccc(OC)cc8)c7)C[C@@H]([C@H]3C)[C@@]46OO5)c2)cc1 | 6 | 4.3 | 30.5 | 108 | 69.2 | 11.5 | 16.1
C[C@@H]1[C@H](O)C[C@H]2[C@@H](C)C(=O)O[C@@H]3O[C@]4(C)CC[C@@H]1[C@]32OO4 | – | 80.4 | – | 21.9 | 146 | – | 1.8
O=c1[nH]cc(F)c(=O)[nH]1 [FLUOROURACIL] | – | 6.8 | – | 15.2 | 25.9 | 2.2 | 3.8
C[C@@H]1[C@H](OC(=O)c2cccc(SCc3ccccc3)c2)C[C@H]2[C@@H](C)[C@H](OC(=O)c3cccc(SCc4ccccc4)c3)O[C@@H]3O[C@]4(C)CC[C@@H]1[C@]32OO4 | – | 223 | – | 289 | – | – | –
COc1ccc(Sc2cccc(C(=O)O[C@@H]3O[C@@H]4O[C@]5(C)CC[C@H]6[C@H](C)[C@H](O)C[C@@H]([C@H]3C)[C@@]46OO5)c2)cc1 | 7.1 | 1.6 | 13 | 124 | 80.2 | 11.3 | 50.1
C[C@@H]1[C@H](O)C[C@H]2[C@@H](C)[C@H](OC(=O)c3cccc(SCc4ccccc4)c3)O[C@@H]3O[C@]4(C)CC[C@@H]1[C@]32OO4 | – | 95 | 146 | 223 | – | – | –
CCCCSc1cccc(C(=O)O[C@@H]2O[C@@H]3O[C@]4(C)CC[C@H]5[C@H](C)[C@H](OC(=O)c6cccc(SCCCC)c6)C[C@@H]([C@H]2C)[C@@]35OO4)c1 | 85 | 107 | 115 | – | – | – | –
CCSc1cccc(C(=O)O[C@@H]2O[C@@H]3O[C@]4(C)CC[C@H]5[C@H](C)[C@H](O)C[C@@H]([C@H]2C)[C@@]35OO4)c1 | – | 1440 | – | 120 | – | – | –
